#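 Briefly, cells in 96-well plates were exposed to five compound concentrations for 48 h, and endpoints were estimated by linear interpolation. Definition used: TGI = concentration required for complete inhibition of growth.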
# Assays:
# Assay in all cases: growth of human tumour cells (NCI), 48 h
# HT29 colon = system: HT29 colon
# DLD-1 colon = system: DLD-1 colon
# HOP-62 NSCLC = system: HOP-62 NSCLC
# SW-620 colon = system: SW-620 colon
# BT-549 breast = system: BT-549 breast
# MOLT-4 leukemia = system: MOLT-4 leukemia
# SK-MEL-2 melanoma = system: SK-MEL-2 melanoma
# NCI-H23 lung = system: NCI-H23 lung
# 786-0 renal = system: 786-0 renal
# M19-MEL melanoma = system: M19-MEL melanoma
# K-562 leukemia = system: K-562 leukemia
# LXFL 529 NSCLC = system: LXFL 529 NSCLC
# U251 CNS = system: U251 CNS
# SN12C renal = system: SN12C renal
# RXF 393 renal = system: RXF 393 renal
# IGROV1 ovarian = system: IGROV1 ovarian
# MDA-N = system: MDA-N
# NCI/ADR-RES ovarian = system: NCI/ADR-RES ovarian
# UACC-62 melanoma = system: UACC-62 melanoma
# A498 renal = system: A498 renal
# COLO 205 colon = system: COLO 205 colon
# SNB-19 CNS = system: SNB-19 CNS
# LOX IMVI melanoma = system: LOX IMVI melanoma
# SNB-75 CNS = system: SNB-75 CNS
# KM12 colon = system: KM12 colon
# NCI-H522 lung = system: NCI-H522 lung
# OVCAR-5 ovarian = system: OVCAR-5 ovarian
# UO-31 renal = system: UO-31 renal
# HCC-2998 colon = system: HCC-2998 colon
# HCT-116 colon = system: HCT-116 colon
# SF-539 CNS = system: SF-539 CNS
# HS 578T breast = system: HS 578T breast
# OVCAR-8 ovarian = system: OVCAR-8 ovarian
# T-47D breast = system: T-47D breast
# MCF7 breast = system: MCF7 breast
# RPMI-8226 leukemia = system: RPMI-8226 leukemia
# EKVX NSCLC = system: EKVX NSCLC
# M14 melanoma = system: M14 melanoma
# OVCAR-4 ovarian = system: OVCAR-4 ovarian
# PC-3 prostate = system: PC-3 prostate
# ACHN renal = system: ACHN renal
# SF-295 CNS = system: SF-295 CNS
# UACC-257 melanoma = system: UACC-257 melanoma
# DMS 273 small cell lung = system: DMS 273 small cell lung
# MDA-MB-231 breast = system: MDA-MB-231 breast
# CCRF-CEM leukemia = system: CCRF-CEM leukemia
# NCI-H460 lung = system: NCI-H460 lung
# SR leukemia = system: SR leukemia
# SNB-78 CNS = system: SNB-78 CNS
# HOP-18 NSCLC = system: HOP-18 NSCLC
# DU-145 prostate = system: DU-145 prostate
# SF-268 CNS = system: SF-268 CNS
# MALME-3M melanoma = system: MALME-3M melanoma
# NCI-H226 lung = system: NCI-H226 lung
# OVCAR-3 ovarian = system: OVCAR-3 ovarian
# TK-10 renal = system: TK-10 renal
# DMS 114 small cell lung = system: DMS 114 small cell lung
# MDA-MB-435 = system: MDA-MB-435
# HOP-92 NSCLC = system: HOP-92 NSCLC
# KM20L2 colon = system: KM20L2 colon
# SK-MEL-28 melanoma = system: SK-MEL-28 melanoma
# A549 NSCLC = system: A549 NSCLC
# HCT-15 colon = system: HCT-15 colon
# HL-60(TB) leukemia = system: HL-60(TB) leukemia
# SK-MEL-5 melanoma = system: SK-MEL-5 melanoma
# RXF-631 renal = system: RXF-631 renal
# CAKI-1 renal = system: CAKI-1 renal
# XF 498 CNS = system: XF 498 CNS
smiles,measurement,setting,value
COC1C(N)C(OC2C(Oc3cccc4c(O)c5c(=O)oc6ccc(C)c7c(=O)oc(c34)c5c67)OC(C)C(O)C2(C)O)OC(C)C1O (stereo not drawn),TGI,HT29 colon,436 nM
same,TGI,DLD-1 colon,726 nM
same,TGI,HOP-62 NSCLC,258 nM
same,TGI,SW-620 colon,1610 nM
same,TGI,BT-549 breast,214 nM
same,TGI,MOLT-4 leukemia,1960 nM
same,TGI,SK-MEL-2 melanoma,37.8 nM
same,TGI,NCI-H23 lung,249 nM
same,TGI,786-0 renal,360 nM
same,TGI,M19-MEL melanoma,458 nM
same,TGI,K-562 leukemia,1560 nM
same,TGI,LXFL 529 NSCLC,148 nM
same,TGI,U251 CNS,789 nM
same,TGI,SN12C renal,547 nM
same,TGI,RXF 393 renal,138 nM
same,TGI,IGROV1 ovarian,132 nM
same,TGI,MDA-N,541 nM
same,TGI,NCI/ADR-RES ovarian,12100 nM
same,TGI,UACC-62 melanoma,147 nM
same,TGI,A498 renal,155 nM
same,TGI,COLO 205 colon,383 nM
same,TGI,SNB-19 CNS,469 nM
same,TGI,LOX IMVI melanoma,280 nM
same,TGI,SNB-75 CNS,356 nM
same,TGI,KM12 colon,366 nM
same,TGI,NCI-H522 lung,181 nM
same,TGI,OVCAR-5 ovarian,1450 nM
same,TGI,UO-31 renal,820 nM
same,TGI,HCC-2998 colon,336 nM
same,TGI,HCT-116 colon,118 nM
same,TGI,SF-539 CNS,208 nM
same,TGI,HS 578T breast,886 nM
same,TGI,OVCAR-8 ovarian,212 nM
same,TGI,T-47D breast,1430 nM
same,TGI,MCF7 breast,1310 nM
same,TGI,RPMI-8226 leukemia,12400 nM
same,TGI,EKVX NSCLC,1030 nM
same,TGI,M14 melanoma,750 nM
same,TGI,OVCAR-4 ovarian,2280 nM
same,TGI,PC-3 prostate,1180 nM
same,TGI,ACHN renal,1500 nM
same,TGI,SF-295 CNS,1210 nM
same,TGI,UACC-257 melanoma,277 nM
same,TGI,DMS 273 small cell lung,399 nM
same,TGI,MDA-MB-231 breast,1740 nM
same,TGI,CCRF-CEM leukemia,3660 nM
same,TGI,NCI-H460 lung,139 nM
same,TGI,SR leukemia,8120 nM
same,TGI,SNB-78 CNS,302 nM
same,TGI,HOP-18 NSCLC,3080 nM
same,TGI,DU-145 prostate,1330 nM
same,TGI,SF-268 CNS,104 nM
same,TGI,MALME-3M melanoma,171 nM
same,TGI,NCI-H226 lung,169 nM
same,TGI,OVCAR-3 ovarian,406 nM
same,TGI,TK-10 renal,1270 nM
same,TGI,DMS 114 small cell lung,229 nM
same,TGI,MDA-MB-435,219 nM
same,TGI,HOP-92 NSCLC,65.3 nM
same,TGI,KM20L2 colon,1210 nM
same,TGI,SK-MEL-28 melanoma,340 nM
same,TGI,A549 NSCLC,1490 nM
same,TGI,HCT-15 colon,7550 nM
same,TGI,HL-60(TB) leukemia,9480 nM
same,TGI,SK-MEL-5 melanoma,265 nM
same,TGI,RXF-631 renal,1450 nM
same,TGI,CAKI-1 renal,1450 nM
same,TGI,XF 498 CNS,208 nM
